Measurements from US20080188562A1, “TREATING […] USING PRODRUGS OF […] PREGABALIN” (priority 2006, published 2008).

How the values were obtained:
[1] = test system: acoustic trauma-induced tinnitus; conditions: animals; Bauer and Brozoski 2001; cited from earlier work
[2] = test system: tinnitus; conditions: doses up to 2,400 mg/day; Bauer and Brozoski 2006; cited from earlier work
[3] = cited from earlier work
[4] = Randomized, crossover, fed/fasted single-dose pharmacokinetics study of oral sustained release tablets of compound (3); format: in vivo, human; conditions: tablets 2×600 mg oral
Protocol: A randomized, crossover, fed/fasted single-dose study of the safety, tolerability, and pharmacokinetics of oral administration of 1-{[(α-isobutanoyloxyethoxy)carbonyl]aminomethyl}-1-cyclohexane acetic acid (3) in healthy adult subjects was conducted. The oral sustained release dosage form of Example 6 was used in this study. The study was designed to evaluate the performance of this formulation in humans in comparison with the commercial gabapentin capsule formulation (Neurontin®, Pfizer). Twelve healthy adult volunteers (7 males and 5 females) participated in the study. Mean body weight was 75.6 kg. All subjects received two different treatments in a random order with a one-week washout between treatments.
Blood and plasma samples were collected from all subjects prior to dosing, and at 0.5, 1, 1.5, 2, 3, 4, 6, 8, 12, 18, 24, and 36 hours after dosing. Urine samples were collected from all subjects prior to dosing, and complete urine output was obtained at the 0-4 h, 4-8 h, 8-12 h, 12-18 h, 18-24 h, and 24-36 h intervals after dosing. Blood samples were quenched immediately with methanol and stored frozen at <70° C. Sample aliquots were prepared for analysis of gabapentin and compound (3) using sensitive and specific LC/MS/MS methods.

Row | SMILES | Attenuation of acoustic trauma-induced tinnitus [1] | Efficacy in treating tinnitus [2] | Typical Tmax of immediate release gabapentin [3] | AUC of compound (3) in blood as percent of corresponding AUC of gabapentin in blood ([4]; fasted) | Maximum concentration of intact compound (3) as percent of corresponding peak gabapentin concentration ([4]; fasted) | Maximum concentration of intact compound (3) in blood ([4]; fasted) | AUC of compound (3) in blood as percent of corresponding AUC of gabapentin in blood ([4]; fed) | Maximum concentration of intact compound (3) as percent of corresponding peak gabapentin concentration ([4]; fed) | Maximum concentration of intact compound (3) in blood ([4]; fed)
1 | NCC1(CC(=O)O)CCCCC1 [gabapentin] | effective in reversibly attenuating acoustic trauma-induced tinnitus in animals | effective in treating tinnitus | 2 to 4 h |  |  |  |  |  | 
2 | CC(OC(=O)NCC1(CC(=O)O)CCCCC1)OC(=O)C(C)C (stereo not drawn) [compound (3), 1-{[(α-Isobutanoyloxyethoxy)carbonyl]aminomethyl}-1-Cyclohexane Acetic Acid] |  |  |  | 0.3% | approximately 1.0% | 0.040 µg/mL | less than 0.1% | approximately 0.3% | 0.018 µg/mL
